These results are taken from paper PMC6576746, “Rational discovery of dual-indication multi-target PDE/Kinase inhibitor for precision anti-cancer therapy using structural systems pharmacology” (PLoS Computational Biology, 2019).

Experiment in all cases: biochemical
Holding throughout (set-up): DiscoverX KinomeScan competition binding assay across human kinases; per cent of control at 10 and 100 uM
Holding throughout (conditions): competition binding, % of control; read-out: Percent Control (100 uM Levosimendan)

The target of assay [1] is T1, ABL1(H396P)-phosphorylated (Homo sapiens, UniProt P00519, H396P).
T1 construct: phosphorylated
The method in brief:
(§1)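 KinomeScan competition binding was run across a human kinase panel at 10 μM and 100 μM levosimendan. Results are %control = (test − positive control)/(negative control − positive control) × 100.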

The target in assay [2] is T2, ABL1(M351T)-phosphorylated (Homo sapiens, UniProt P00519, M351T).
T2 construct: phosphorylated
The method in brief:
as §1

Assay [3] deals with T3, ABL1(T315I)-nonphosphorylated (Homo sapiens, UniProt P00519, T315I).
T3 construct: nonphosphorylated
Summed up:
as §1

Another assay addresses T4, AMPK-alpha1 (Homo sapiens, UniProt Q13131).
T4 construct: gene PRKAA1
The method in brief:
as §1

Another assay concerns the target BRSK1 (Homo sapiens, UniProt Q8TDC3). Summed up:
as §1

Another assay has as its target CAMK1D (Homo sapiens, UniProt Q8IU85). The method in brief: as §1
The next assay deals with T5, CDK4-cyclinD1 (Homo sapiens, UniProt P11802).
T5 construct: cyclinD1
The method in brief: as §1

A further assay has as its target CSF1R-autoinhibited (Homo sapiens, UniProt P07333). The method in brief:
as §1

The target in a further assay is DAPK3 (Homo sapiens, UniProt O43293). Summed up:
as §1

The target of a further assay is T6, ICK (Homo sapiens, UniProt Q9UPZ9).
T6 construct: gene CILK1
Summed up:
as §1

The target in another assay is T7, MLK2 (Homo sapiens, UniProt Q02779).
T7 construct: gene MAP3K10
Summed up:
as §1

The target in the next assay is MST1R (Homo sapiens, UniProt Q04912). Summed up:
as §1

In a further assay the target is T8, PIK4CB (Homo sapiens, UniProt Q9UBF8).
T8 construct: gene PI4KB
Summed up: as §1

The target of another assay is PLK2 (Homo sapiens, UniProt Q9NYY3). The method in brief:
as §1

Another assay deals with PRKG1 (Homo sapiens, UniProt Q13976). Summed up:
as §1

In another assay the target is T9, RIPK5 (Homo sapiens, UniProt Q6XUX3).
T9 construct: gene DSTYK
Summed up:
as §1

In the next assay the target is TNK2 (Homo sapiens, UniProt Q07912). The method in brief: as §1
The next assay has as its target TNNI3K (Homo sapiens, UniProt Q59H18). The method in brief:
as §1

A further assay has as its target ULK1 (Homo sapiens, UniProt O75385). The method in brief: as §1

T6 sequence (Q9UPZ9 whole entry): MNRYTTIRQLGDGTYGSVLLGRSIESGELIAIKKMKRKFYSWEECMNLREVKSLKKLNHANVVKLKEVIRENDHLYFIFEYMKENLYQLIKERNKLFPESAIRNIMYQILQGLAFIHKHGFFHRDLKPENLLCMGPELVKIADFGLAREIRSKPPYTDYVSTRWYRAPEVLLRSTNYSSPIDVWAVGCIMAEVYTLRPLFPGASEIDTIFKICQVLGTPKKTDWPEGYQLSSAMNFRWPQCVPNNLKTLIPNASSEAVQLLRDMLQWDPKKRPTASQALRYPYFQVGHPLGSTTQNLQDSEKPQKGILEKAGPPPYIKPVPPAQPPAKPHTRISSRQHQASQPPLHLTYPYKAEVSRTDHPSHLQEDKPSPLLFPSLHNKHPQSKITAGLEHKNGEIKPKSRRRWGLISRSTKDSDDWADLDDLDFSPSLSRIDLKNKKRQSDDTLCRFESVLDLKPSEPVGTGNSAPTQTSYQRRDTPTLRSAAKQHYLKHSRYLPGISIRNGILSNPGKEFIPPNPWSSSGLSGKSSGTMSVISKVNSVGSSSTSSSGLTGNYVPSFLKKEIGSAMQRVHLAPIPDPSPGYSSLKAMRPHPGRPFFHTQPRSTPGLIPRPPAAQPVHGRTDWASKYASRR
CAMK1D, sequence (Q8IU85 whole entry): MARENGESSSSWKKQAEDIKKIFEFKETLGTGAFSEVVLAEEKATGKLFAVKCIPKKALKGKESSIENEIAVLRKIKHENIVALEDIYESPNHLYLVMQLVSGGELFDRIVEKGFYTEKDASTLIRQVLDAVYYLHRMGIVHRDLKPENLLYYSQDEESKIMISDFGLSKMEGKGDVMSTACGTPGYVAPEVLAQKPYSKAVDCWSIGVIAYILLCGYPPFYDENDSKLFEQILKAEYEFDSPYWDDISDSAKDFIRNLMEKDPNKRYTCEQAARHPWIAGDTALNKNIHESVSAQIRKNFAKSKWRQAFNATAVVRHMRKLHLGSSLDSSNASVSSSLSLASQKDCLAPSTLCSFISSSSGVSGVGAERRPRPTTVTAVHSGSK
ULK1, sequence (O75385 whole entry): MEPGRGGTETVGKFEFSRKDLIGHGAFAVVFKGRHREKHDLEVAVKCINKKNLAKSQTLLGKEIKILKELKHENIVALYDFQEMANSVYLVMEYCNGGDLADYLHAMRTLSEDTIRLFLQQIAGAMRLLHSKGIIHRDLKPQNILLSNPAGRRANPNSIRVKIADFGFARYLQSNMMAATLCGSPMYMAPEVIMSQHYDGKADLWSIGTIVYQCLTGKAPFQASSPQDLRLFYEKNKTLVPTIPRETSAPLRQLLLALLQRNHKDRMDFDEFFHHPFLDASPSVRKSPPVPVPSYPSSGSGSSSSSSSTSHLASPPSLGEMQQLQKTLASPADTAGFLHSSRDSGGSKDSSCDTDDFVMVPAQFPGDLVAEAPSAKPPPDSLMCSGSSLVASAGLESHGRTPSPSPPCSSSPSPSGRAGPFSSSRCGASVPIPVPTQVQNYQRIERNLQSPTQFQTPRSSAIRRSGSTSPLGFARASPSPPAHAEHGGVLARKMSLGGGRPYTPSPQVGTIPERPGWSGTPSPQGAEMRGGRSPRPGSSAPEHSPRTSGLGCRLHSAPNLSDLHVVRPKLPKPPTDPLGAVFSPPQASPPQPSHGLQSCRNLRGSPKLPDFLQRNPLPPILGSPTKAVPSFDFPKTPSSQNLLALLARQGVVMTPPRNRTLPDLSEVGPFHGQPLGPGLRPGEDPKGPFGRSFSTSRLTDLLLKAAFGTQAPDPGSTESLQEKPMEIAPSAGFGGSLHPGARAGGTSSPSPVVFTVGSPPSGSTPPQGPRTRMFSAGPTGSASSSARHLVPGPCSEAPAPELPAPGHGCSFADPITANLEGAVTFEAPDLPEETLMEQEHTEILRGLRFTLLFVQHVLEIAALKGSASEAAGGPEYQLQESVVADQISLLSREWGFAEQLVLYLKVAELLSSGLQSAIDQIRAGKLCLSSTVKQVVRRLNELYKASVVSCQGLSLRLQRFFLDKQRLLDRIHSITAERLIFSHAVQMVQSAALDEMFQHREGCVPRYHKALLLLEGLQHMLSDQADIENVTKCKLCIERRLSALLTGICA
BRSK1, sequence (Q8TDC3 whole entry): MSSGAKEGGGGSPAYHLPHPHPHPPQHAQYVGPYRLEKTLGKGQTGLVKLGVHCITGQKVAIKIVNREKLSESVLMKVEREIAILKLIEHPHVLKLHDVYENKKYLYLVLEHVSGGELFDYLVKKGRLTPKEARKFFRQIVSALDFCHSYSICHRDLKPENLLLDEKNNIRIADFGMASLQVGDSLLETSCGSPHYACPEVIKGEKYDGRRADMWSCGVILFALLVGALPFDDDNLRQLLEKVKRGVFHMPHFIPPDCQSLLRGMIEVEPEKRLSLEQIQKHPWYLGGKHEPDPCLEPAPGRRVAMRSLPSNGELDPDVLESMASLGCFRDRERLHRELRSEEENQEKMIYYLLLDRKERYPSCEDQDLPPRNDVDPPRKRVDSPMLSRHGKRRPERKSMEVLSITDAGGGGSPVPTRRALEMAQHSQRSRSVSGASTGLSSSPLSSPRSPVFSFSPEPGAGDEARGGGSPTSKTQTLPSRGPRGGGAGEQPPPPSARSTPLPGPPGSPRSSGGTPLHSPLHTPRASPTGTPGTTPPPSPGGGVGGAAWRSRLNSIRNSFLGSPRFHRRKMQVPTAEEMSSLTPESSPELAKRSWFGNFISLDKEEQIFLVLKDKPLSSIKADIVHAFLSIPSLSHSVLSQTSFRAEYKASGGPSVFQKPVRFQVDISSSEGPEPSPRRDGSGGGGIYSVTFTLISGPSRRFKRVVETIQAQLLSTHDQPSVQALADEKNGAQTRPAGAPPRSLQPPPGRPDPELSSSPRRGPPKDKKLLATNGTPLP
T8 sequence (Q9UBF8 whole entry): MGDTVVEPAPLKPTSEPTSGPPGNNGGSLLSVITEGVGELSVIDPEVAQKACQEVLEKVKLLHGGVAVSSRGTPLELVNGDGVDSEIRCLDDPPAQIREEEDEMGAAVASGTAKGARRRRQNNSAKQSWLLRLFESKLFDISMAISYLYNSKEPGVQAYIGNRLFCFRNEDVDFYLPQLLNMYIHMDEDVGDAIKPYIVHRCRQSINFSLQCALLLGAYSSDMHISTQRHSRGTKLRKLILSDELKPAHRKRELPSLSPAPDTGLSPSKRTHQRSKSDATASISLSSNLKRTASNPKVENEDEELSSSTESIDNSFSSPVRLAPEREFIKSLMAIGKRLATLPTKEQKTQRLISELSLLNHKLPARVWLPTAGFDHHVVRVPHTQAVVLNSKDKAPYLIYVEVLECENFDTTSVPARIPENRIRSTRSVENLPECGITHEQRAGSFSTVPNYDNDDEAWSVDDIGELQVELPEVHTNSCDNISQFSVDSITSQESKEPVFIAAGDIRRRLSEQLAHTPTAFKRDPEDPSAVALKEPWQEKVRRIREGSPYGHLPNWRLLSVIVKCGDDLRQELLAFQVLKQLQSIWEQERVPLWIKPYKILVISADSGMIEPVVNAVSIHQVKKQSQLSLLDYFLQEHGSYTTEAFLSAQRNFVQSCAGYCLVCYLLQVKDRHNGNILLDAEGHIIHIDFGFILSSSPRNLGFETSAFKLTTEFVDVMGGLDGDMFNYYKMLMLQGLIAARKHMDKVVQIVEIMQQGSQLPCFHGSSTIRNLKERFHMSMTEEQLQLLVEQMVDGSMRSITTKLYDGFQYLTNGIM
MST1R, sequence (Q04912 whole entry): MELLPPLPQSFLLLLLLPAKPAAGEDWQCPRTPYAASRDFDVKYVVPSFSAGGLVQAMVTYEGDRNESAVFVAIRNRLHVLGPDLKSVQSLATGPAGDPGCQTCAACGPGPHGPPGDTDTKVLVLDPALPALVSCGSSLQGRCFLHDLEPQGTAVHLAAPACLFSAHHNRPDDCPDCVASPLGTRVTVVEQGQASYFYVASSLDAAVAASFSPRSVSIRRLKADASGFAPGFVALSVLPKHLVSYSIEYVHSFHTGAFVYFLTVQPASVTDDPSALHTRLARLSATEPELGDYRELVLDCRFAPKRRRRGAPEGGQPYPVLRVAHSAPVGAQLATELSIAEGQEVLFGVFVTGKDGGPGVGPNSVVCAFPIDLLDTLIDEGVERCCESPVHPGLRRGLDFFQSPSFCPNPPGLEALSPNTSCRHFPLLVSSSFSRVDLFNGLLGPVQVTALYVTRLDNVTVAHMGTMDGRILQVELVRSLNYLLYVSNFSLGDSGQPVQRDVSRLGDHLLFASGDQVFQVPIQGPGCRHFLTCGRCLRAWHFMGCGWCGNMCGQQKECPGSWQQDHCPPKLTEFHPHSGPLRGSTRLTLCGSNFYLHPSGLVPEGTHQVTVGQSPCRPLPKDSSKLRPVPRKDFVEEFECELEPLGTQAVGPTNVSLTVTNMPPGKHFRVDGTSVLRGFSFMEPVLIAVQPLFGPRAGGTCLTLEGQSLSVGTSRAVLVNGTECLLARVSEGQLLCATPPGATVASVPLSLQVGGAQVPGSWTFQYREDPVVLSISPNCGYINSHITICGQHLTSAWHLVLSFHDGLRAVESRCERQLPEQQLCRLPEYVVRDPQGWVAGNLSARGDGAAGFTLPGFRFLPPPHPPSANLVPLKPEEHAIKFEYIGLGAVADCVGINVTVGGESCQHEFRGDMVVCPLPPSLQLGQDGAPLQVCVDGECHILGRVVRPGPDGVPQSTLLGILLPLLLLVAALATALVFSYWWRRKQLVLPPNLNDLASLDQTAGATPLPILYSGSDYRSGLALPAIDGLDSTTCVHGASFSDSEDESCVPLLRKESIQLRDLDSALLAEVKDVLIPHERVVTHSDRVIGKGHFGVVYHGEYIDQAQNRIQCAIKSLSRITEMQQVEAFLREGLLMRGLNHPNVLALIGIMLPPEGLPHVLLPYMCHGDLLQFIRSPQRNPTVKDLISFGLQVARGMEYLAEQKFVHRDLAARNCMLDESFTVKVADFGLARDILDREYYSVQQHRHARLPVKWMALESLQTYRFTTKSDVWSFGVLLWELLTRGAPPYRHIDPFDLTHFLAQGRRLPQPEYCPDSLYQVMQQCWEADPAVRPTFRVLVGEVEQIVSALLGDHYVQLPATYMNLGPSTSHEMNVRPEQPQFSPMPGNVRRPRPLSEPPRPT

For `C[C@@H]1CC(=O)NN=C1c1ccc(NN=C(C#N)C#N)cc1` [levosimendan], the remaining binding at 100 µM in [1] is 68%; in assay [2], 79%; in [3], 100%; at AMPK-alpha1 it was 83%; at BRSK1, 100%; at CAMK1D it was 57%. The remaining binding at 100 µM on CDK4-cyclinD1 is 84%; at CSF1R-autoinhibited, 85%; on DAPK3, 60%; on ICK, 94%; at MLK2 it was 81%; on MST1R it was 87%. The remaining binding at 100 µM was 100% at PIK4CB; 72% at PLK2; 64% on PRKG1; 60% on RIPK5; 86% on TNK2; 95% on TNNI3K. In addition, the remaining binding at 100 µM at ULK1 amounted to 95%.
